Data reported in patent US20110053969A1, “NOVEL DIAZASIPIROAKANES AND THEIR USE FOR TREATMENT OF CCR8 MEDIATED DISEASES” (ASTRAZENECA AB, priority 2005, published 2011).
Where a name gives a salt, the structure may show the parent alone.

Key:
[1] = biological target: T1, human recombinant chemokine CCR8 receptor (Homo sapiens, UniProt P51685); assay: CCL1 SPA binding assay; settings: inhibition of 125I CCL1 binding to membranes from CHO-K1 cells transfected with human CCR8
T1 construct: purchased Euroscreen ES-136-M; host or cells: CHO-K1 cells (transfected), membrane preparation
T1 sequence (P51685 whole entry): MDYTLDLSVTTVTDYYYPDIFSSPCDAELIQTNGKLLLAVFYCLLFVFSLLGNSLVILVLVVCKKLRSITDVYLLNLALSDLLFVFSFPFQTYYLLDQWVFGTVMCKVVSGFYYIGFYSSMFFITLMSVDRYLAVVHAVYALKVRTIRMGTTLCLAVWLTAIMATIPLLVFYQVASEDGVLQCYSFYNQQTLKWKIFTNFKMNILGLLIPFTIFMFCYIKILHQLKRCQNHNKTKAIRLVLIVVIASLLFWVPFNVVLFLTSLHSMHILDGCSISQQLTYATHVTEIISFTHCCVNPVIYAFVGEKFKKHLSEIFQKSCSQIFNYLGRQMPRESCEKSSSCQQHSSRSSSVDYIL
Protocol: Membranes from CHO-K1 cells transfected with human recombinant chemokine CCR8 receptor (ES-136-M) were purchased from Euroscreen. Membrane preparations are stored at −70 C in 7.5 mM Tris-Cl pH 7.5, 12.5 mM MgCl2, 0.3 mM EDTA, 1 mM EGTA, 250 mM sucrose until used.
The CCR8 membranes (50.6 mg/ml) were preincubated with Wheat Germ Agglutinin SPA beads (4.05 mg/ml) in assay buffer (50 mM HEPES, 1 mM CaCl2x2H2O, 5 mM MgCl2x6H2O, 75 mM NaCl, 0.1% BSA) at pH=7.4 for 2 hours on ice. A 10-point dose-response curve (final concentrations 50 μM, 16.7 μM, 5.6 μM, 1.9 μM, 0.62 μM, 0.21 μM, 0.069 μM, 0.023 μM) was prepared by diluting compounds by serial dilution 1:3 in DMSO. In the screening plate (Polystyrene NBS plates, Costar Corning 3604) 1 μl from the DMSO solutions of compounds was transferred into each well. 1 μl of DMSO was added to the blank control wells and 1 μl unlabeled CCL1 (300 nM) was added to background control wells. 50 μl of the SPA bead-membrane mixture was added into each well. Finally, 50 μl. ([…]) ^125I CCL1 (2000 Ci/mM) was added to each well. Plates were then incubated at RT with shaking (700 rpm) for 90 minutes followed by 30 minutes at RT without shaking. The plate was read in a Wallac MicroBeta counter for 2 minutes/well.

[2] = Human microsomal stability assay; format: in vitro ADME; settings: human microsomes (Xenotech), 1 mg microsomal protein/mL, 2.5 μM compound, 2 mM NADPH, pH 7.4, 37° C., read-out: Human Microsomal Stability (intrinsic Clearance, CLint)
Protocol: Human Microsomal Stability Assay
The assay is run in a 96-deepwell format at 1 mg microsomal protein (Xenotech)/mL in potassium phosphate buffer (pH 7.4) with a compound concentration of 2.5 μM and a NADPH concentration of 2 mM. Samples at four time-points (0, 5, 15 and 30 minutes) are withdrawn and the enzymatic reaction is terminated by protein precipitation with 1% acetic acid in acetonitrile. The incubations are performed on a thermostated plate (37° C.) placed on a Tecan worktable, and all liquid handling was performed robotically. After centrifugation of the samples, the supernatants are pooled in sets of four before they are analysed by liquid chromatography with tandem mass spectrometry detection (LC/MS/MS) using multiple reaction monitoring (MRM). Data are presented as intrinsic Clearance (CLint), μl/min/mg protein, calculated from the initial linear part of the compound disappearance curve.

| IC50 [1] [µM] | microsomal CLint at 2.5 μM [2] [µL/min/mg] | SMILES |
| --- | --- | --- |
| 0.062 | < 10 | COc1ccccc1Oc1ccccc1CN1CCC2(CC1)CCN(C(=O)c1ccc[nH]c1=O)CC2 [Example 2, 3-({9-[2-(2-methoxyphenoxy)benzyl]-3,9-diazaspiro[5.5]undec-3-yl}carbonyl)pyridin-2(1H)-one] |
| 0.083 | < 10 | COc1ccccc1Oc1ccccc1CN1CCC2(CC1)CCN(C(=O)c1ccc(=O)[nH]c1C(F)(F)F)CC2 [Example 3, 5-({9-[2-(2-methoxyphenoxy)benzyl]-3,9-diazaspiro[5.5]undec-3-yl}carbonyl)-6-(trifluoromethyl)pyridin-2(1H)-one trifluoroacetate] |
| 0.015 | 21.7 | COc1ccccc1Oc1cccc(CN2CCC3(CC2)CCN(C(=O)c2ccc[nH]c2=O)CC3)c1 [Example 4, 3-({9-[3-(2-methoxyphenoxy)benzyl]-3,9-diazaspiro[5.5]undec-3-yl}carbonyl)pyridin-2(1H)-one] |

| SMILES | IC50 [1] [µM] | microsomal CLint at 2.5 μM [2] [µL/min/mg] |
| --- | --- | --- |
| CC(C)COc1ccccc1CN1CCC2(CC1)CCN(C(=O)c1ccc[nH]c1=O)CC2 [A, 3-{[9-(2-isobutoxybenzyl)-3,9-diazaspiro[5.5]undec-3-yl]carbonyl}pyridin-2(1H)-one, reference compound] | 1.95 |  |
| CC(C)COc1ccccc1CN1CCC2(CC1)CCN(C(=O)c1ccc(=O)[nH]c1)CC2 [B, 5-{[9-(2-isobutoxybenzyl)-3,9-diazaspiro[5.5]undec-3-yl]carbonyl}pyridin-2(1H)-one, reference compound] | 1.9 |  |
